Results taken from publication PMC4001449, “Thienoquinolines as Novel Disruptors of the PKCε/RACK2 Protein–Protein Interaction” (Journal of Medicinal Chemistry, 2014).

Key:
[1] = system: PKCε; test: PKCε translocation, cell fractionation and Western blotting in PC-3 cells; format: cell-based, human; details: Figure 3
Protocol: For PKCε translocation PC-3 cells were starved for 16 h, treated with 8 for 30 min, stimulated with 50 nM TPA for 5 min, lysed, and fractionated with a CNMCS/CNM compartmental protein extraction kit (BioChain Institute, Newark, CA). Western blotting was performed by a standard procedure as described by Garczarczyk et al.[27],[40] Cytosolic and membrane fractions were loaded onto SDS gels and transferred to an Immobilon membrane (Millipore, Billerica, MA). The membranes were incubated with rabbit polyclonal IgG antibodies for detection of PKCε (Santa Cruz Biotechnology; dilution 1:2000), for PKCε phosphoSer^729 (Millipore; dilution 1:1000), for PKCδ (Santa Cruz Biotechnology; dilution 1:1000), and for MARCKS phosphoSer152/156 (Cell Signaling Technology, Danvers, MA; dilution 1:1000). For the loading control tubulin (Santa Cruz Biotechnology; dilution 1:1000), and as marker for the membrane fraction, an IGFI-βR rabbit polyclonal IgG antibody (Santa Cruz; dilution 1:1000) and, as secondary antibodies, peroxidase-conjugated AffiniPure goat anti-rabbit IgG (Jackson ImmunoResearch Laboratories, West Grove, PA; dilution 1:20000) were used. GAPDH (Chemicon, Millipore, Billerica, MA; dilution 1:10000) was used as loading control for the cytosolic fraction. […]

[2] = system: PC-3 prostate adenocarcinoma cells; test: Cell proliferation (SRB assay), PC-3; format: cell-based, human; details: PC-3, 50 μM, 72 h
Protocol: HeLa cells containing a tetracycline/doxycycline-inducible constitutively active PKCε were described previously.[26] A PathDetect HeLa HLR cell line was obtained from Agilent, Technologies, Wokingham, U.K. PC-3 prostate adenocarcinoma cells were obtained from Dr. Helmut Klocker, Department of Urology, Innsbruck Medical University. For cell proliferation HeLa HLR and PC-3 cells were seeded at ∼10 000 cells per well in 96-well plates. After 4 h various concentrations of 8 were added and left for 72 h. Cell proliferation was determined by the SRB assay.[35]

[3] = system: HeLa cells containing a doxycycline-inducible constitutively active PKCε; test: Scratch migration assay; format: cell-based; details: 25 μM, 24 h, doxycycline 2 μg/mL
Protocol: For cell migration and motility, a scratch migration assay described by Cha et al.[41] was employed. In a tissue culture dish, with logarithmically growing HeLa cells containing a doxycycline-inducible constitutively active PKCε, a migration gap of approximately 1 mm was created by introducing a “scratch” to the adherent layer of cultured cells using a sterile Gilson 200 μL pipet tip. The scratch was administered by hand with sufficient pressure to remove adherent cells from the polystyrene substrate but without causing physical damage to the polystyrene surface. The dish was washed with PBS to remove the cells and further incubated with 2 μg/mL doxycycline and 25 μM 8 for 24 h. Controls were left either untreated or were incubated with 2 μg/mL doxycycline and DMSO. […] Invasion of HeLa cells through a reconstituted basement membrane matrix was determined with a cell invasion assay kit from Chemicon (no. ECM550) as described by the manufacturer.

[4] = molecular target: T1, PKCε (Homo sapiens, UniProt Q02156); test: PKC isozyme assay, PKCε; format: biochemical; details: 50 µM, Supp. Figure 2
T1 sequence (Q02156 1-737): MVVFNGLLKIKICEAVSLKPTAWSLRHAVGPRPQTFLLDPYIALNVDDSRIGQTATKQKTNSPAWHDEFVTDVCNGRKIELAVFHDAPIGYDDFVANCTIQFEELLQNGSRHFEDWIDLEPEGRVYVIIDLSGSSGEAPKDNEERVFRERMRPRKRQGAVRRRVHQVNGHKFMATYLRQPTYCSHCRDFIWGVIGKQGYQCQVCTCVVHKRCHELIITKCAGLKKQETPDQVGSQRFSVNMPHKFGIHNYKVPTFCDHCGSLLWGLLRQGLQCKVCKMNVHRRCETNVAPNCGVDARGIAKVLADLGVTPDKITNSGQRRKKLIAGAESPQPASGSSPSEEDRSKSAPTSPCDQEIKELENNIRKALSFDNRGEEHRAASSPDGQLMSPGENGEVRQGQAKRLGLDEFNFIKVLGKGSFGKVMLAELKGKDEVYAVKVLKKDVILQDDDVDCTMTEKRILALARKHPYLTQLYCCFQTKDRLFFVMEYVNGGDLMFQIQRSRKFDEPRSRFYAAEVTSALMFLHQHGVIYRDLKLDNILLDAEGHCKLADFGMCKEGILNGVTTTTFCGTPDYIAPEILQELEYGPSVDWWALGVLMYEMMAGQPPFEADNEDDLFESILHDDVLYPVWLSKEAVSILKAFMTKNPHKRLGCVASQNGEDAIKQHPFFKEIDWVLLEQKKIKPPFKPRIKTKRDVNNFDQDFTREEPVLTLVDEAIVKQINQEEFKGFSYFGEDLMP
Protocol: Supporting Information Figure 2. Effect of compound 8 on PKC isozymes. 50 µM of compound
8 were used in the PKC assays as described in Gruber et al., J. Biochem. 2011, 149, 331-336. *p
= 0.015, **p = 0.0028, ***p = 0.0007. The control is standardized (100%). Therefore, the
standard deviation for the control is 0.
(1 picture or pasted object on this page, not shown here)

[5] = molecular target: T2, NUAK1 (Homo sapiens, UniProt O60285); test: Kinase profiling (Dundee), NUAK1; format: biochemical; details: 25 μM solution
T2 sequence (O60285 1-661): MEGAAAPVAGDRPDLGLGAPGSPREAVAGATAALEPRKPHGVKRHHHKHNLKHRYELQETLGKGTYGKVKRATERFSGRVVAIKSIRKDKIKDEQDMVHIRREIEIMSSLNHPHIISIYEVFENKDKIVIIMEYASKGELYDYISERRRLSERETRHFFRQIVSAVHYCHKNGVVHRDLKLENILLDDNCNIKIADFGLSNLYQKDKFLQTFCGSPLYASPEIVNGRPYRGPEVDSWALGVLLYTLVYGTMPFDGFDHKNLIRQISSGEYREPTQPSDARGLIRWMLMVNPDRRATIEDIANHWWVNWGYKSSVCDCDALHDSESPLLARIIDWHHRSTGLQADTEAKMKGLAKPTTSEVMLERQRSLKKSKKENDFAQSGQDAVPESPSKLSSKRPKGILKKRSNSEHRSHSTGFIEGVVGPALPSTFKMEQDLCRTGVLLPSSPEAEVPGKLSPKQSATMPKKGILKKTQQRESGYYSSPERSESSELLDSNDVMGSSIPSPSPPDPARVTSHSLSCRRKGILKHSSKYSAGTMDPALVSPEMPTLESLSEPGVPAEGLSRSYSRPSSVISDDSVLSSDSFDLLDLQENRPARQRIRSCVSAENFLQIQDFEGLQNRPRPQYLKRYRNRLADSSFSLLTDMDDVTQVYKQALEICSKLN

- Inhibition of PKCε in vitro [4]: does not inhibit
- NUAK1 activity, % of control [5]: 49 % of control
SMILES: CC(=O)c1cccc(NC(=O)c2sc3nc4cc5c(cc4cc3c2N)OCCO5)c1 [Compound 8, N-(3-acetylphenyl)-9-amino-2,3-dihydro-1,4-dioxino[2,3-g]thieno[2,3-b]quinoline-8-carboxamide]
- Ser729-phosphorylated PKCε at the membrane ([1]; TPA): did not reduce
- Translocation of activated and phosphorylated PKCε to the membrane fraction ([1]; TPA-induced): partially inhibits
- Inhibition of cell proliferation [2]: did not show any inhibition
- PKCε-induced migration of cells into a gap [3]: inhibited
